Consider 36 compounds from a melting point compilation (Tetko et al.; mined from patent text by program, amines drawn as free bases though some values may be those of a salt).

Structures are written as SMILES.

Regarding `CC(=O)SCC(=Cc1ccc(-c2ccccc2)cc1)C(=O)NCCC(=O)OCc1ccccc1`, the melting point came to 76 °C.

As to `COc1ccc(Cc2c(NC(C)C(C)(C)C)c(=O)c2=O)cc1` (stereo unspecified), the melting point was in the range of 137 to 138 °C.

As to `O=C(Nc1nccs1)c1c([C@@H]2CCCN2)nc2c(C(F)(F)F)cccc2c1O`, the melting point came to 196 °C.

`O=C(O)c1ccc(-c2ccc(-c3ccc(C(F)(F)F)cc3)s2)cc1`: the melting point is 284 to 285 °C.

`CC(C)(C)C1CCc2nc(N)nc(N)c2C1` (stereo unspecified) had a melting point of over 250 °C.

In the case of `CC1C(Cl)(Cl)C1(C)c1ccc(O)cc1` (stereo unspecified), the melting point fell in the range of 79 to 82 °C.

Compound `C[Si](C)(C)C#Cc1ccc(C=Cc2ccc(C#C[Si](C)(C)C)cc2)cc1` came in with a melting point of 207 to 208 °C.

`C=C(C)n1c(=O)n(CC2CN(Cc3ccccc3)CCO2)c2ccccc21` (stereo unspecified) displayed a melting point of 117 °C.

The compound `COc1ccc(CNc2nc(-n3ccnc3)nc3sc(C)cc23)cc1OC` displayed a melting point of 207 °C.

For `CS(=O)(=O)c1ccc(-c2ccccc2C=O)cc1`, the melting point was 115 to 116 °C.

Compound `O=C(c1cc2ccc(Br)cc2o1)C12CC3CC(CC(C3)C1)C2` yielded a melting point of 128 to 130 °C.

Regarding `O=C(Nc1ccccc1)OCC1(COC(=O)Nc2ccccc2)CSc2ccccc2C1=O`, the melting point was 67 to 69 °C.

Take `CCC1Cc2cc(OCC#N)c(Cl)c(Cl)c2C1=O` (stereo unspecified): the melting point was in the range of 139 to 141 °C.

Take `CC(C)(C)c1ccc(-c2cc(N3CCOCC3)cc(=O)o2)cc1`: the melting point lay within 230 to 232 °C.

With `CCOc1cc(OCC)c(C=NNC(=N)NCc2ccccc2)c(OCC)c1`, the melting point was in the range of 140 to 141 °C.

In turn, `CSc1ccc(C(=O)NCc2ccc3c(c2)C(=O)N(C2CCC(=O)NC2=O)C3=O)nc1` (stereo unspecified) came in with a melting point of 185 to 187 °C.

As to `CCCCCCCCCCCCCCCCSCC(CNS(=O)(=O)CCCI)n1nnnc1C` (stereo unspecified), the melting point lay within 63.5 to 65.5 °C.

For the compound `O=C1C(=O)c2ccccc2C2=C1SCC1(CCN(CC(O)COc3ccc(Cl)cc3)CC1)O2` (stereo unspecified), the melting point was in the range of 138 to 140 °C.

`c1ccc(-c2ncc(-c3cnc(-c4ccccc4)[nH]3)cn2)cc1` returned a melting point of 253 °C.

For the compound `O=C(CBr)c1csc(C(F)(F)F)n1`, the melting point lay within 36 to 37 °C.

Turning to `CC1(C)OC(=O)Nc2ccc(-c3coc(C=O)c3)cc21`, the melting point lay within 262 to 263 °C.

As for `C#CCN1C(=O)COc2ccc(-n3c(=O)cc(C(F)(F)F)[nH]c3=O)cc21`, the melting point is over 250 °C.

Compound `CCCCCCCCCCCCc1ccccc1C(Sc1nc(C)c(C(=O)O)n1C)C(=O)O` (stereo unspecified) had a melting point of 104 to 106 °C.

The compound `COc1ccc(C(=O)Nc2ccc(C3(CNC(=O)c4cscn4)CCCC3)cc2)cc1OC` gave a melting point of 101 to 104 °C.

On to `Oc1ccc(-c2nc3cc(O)ccc3o2)c(O)c1`, for which the melting point is over 300 °C.

For `CN1CC(CCN2CCN(c3ccccc3F)CC2)OC1=O` (stereo unspecified), the melting point fell in the range of 80 to 82 °C.

On to `O=C(Nc1ccccc1)Nc1ccc(-c2ccc(C(=O)N3CCN4CCC3CC4)o2)cc1`, for which the melting point fell in the range of 125 to 130 °C.

Take `CCC(CC)(CC(=O)Nc1ccc2ccc(OCc3ccc4ccccc4n3)cc2c1)C(=O)O`: the melting point is 190 to 191 °C.

`CC(C)(C)OC(=O)[C@H]1CCCN1` returned a melting point of 51.5 to 53.2 °C.

For the compound `Cc1ccc(Oc2ccncc2[N+](=O)[O-])cn1`, the melting point lay within 87 to 90 °C.

Turning to `CC(=O)Oc1ccc(S(=O)(=O)ON=C2CCCc3ccccc32)cc1`, the melting point was in the range of 151 to 152 °C.

In turn, `CC1(C)Oc2ccc(C#N)cc2C(Oc2ccccn2)C1O` (stereo unspecified) yielded a melting point of 102 to 103 °C.

Turning to `CCn1cnc2c(N)nc(Cl)nc21`, the melting point lay in the range of 258 to 262 °C.

With `COc1ccc2cccc(/C(CNC(C)=O)=N/O)c2c1`, the melting point was 136 to 138 °C.

In turn, `O=C(Nc1cc(F)c(Cl)nc1C1CCN(CC=Cc2ccc(Cl)cc2)CC1)c1ccnc(Cl)c1` gave a melting point of 71 to 73 °C.

For `C[C@@H]1C(=O)N(c2ccc(C#N)c(C(F)(F)F)c2)[C@@H](C)[C@H]1O`, the melting point is 82 to 85 °C.

The term melting point denotes the temperature, or range, at which the solid turns liquid.
